From patent publication US4772606A, “Purine derivatives” (Warner-Lambert Company, priority 1985, dated 1988) come the findings set out here.

Each structure is given as a SMILES string. Where a name gives a salt, the structure may show the parent alone. Some results are limits rather than exact numbers.

The first test has as its target T1, purine nucleoside phosphorylase (PNP-4) (Homo sapiens, UniProt P00491).
T1 construct: using hyman erythrocyte as the enzyme source; from tissue; host or cells: human erythrocytes
T1 sequence (P00491 1-289): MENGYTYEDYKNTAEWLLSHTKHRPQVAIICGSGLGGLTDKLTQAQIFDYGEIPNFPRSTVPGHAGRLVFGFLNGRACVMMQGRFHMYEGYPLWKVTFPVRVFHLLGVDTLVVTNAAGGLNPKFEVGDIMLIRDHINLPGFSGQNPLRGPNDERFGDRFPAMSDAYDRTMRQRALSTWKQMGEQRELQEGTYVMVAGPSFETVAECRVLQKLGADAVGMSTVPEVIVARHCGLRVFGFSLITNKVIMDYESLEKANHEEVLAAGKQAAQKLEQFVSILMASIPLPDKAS
The test can be described thus: purine nucleoside phosphorylase (PNP-4) enzyme assay, radiochemical, formation of [14C]-hypoxanthine from [14C]inosine. It is filed as biochemical. To be noted: erythrocyte enzyme; [14C]inosine substrate.
Take `Cc1ccsc1Cn1c(N)nc2c(=O)[nH]c(N)nc21` [Example 9d, 8-Amino-9-[(3-methyl-2-thienyl)methyl]guanine]: 4.05 µM corresponded to half-maximal inhibition (IC50).
Molecule `Nc1nc2c(nc(N)n2Cc2cc3ccccc3s2)c(=O)[nH]1` [Example 16Ag] returned an IC50 of 8.45 µM.
Same read-out and setting: as for `Nc1nc2c(nc(N)n2CCc2cccs2)c(=O)[nH]1` [Example 16Ac], the figure is 6.25 µM.
For `CCc1ccc(Cn2cnc3c(=O)[nH]c(N)nc32)s1` [Example 3, 9-[(5-Ethyl-2-thienyl)methyl]guanine], the concentration for half-maximal inhibition (IC50) came out at 0.93 µM.
Consider `Cc1cc(Cn2c(N)nc3c(=O)[nH]c(N)nc32)cs1` [Example 16Ak], for which the IC50 stood at 0.63 µM.
The molecule `Nc1nc2c(nc(N)n2Cc2ccsc2)c(=O)[nH]1` [Example 9c, 8-Amino-9-[(3-thienyl)methyl]guanine, monohydrochloride, monohydrate] registered a half-inhibitory concentration (IC50) of 0.085 µM.
For the molecule `Nc1nc2c(nc(N)n2Cc2csc3ccccc23)c(=O)[nH]1` [Example 9e, 8-Amino-9-[(benzo[b]thien-3-yl)methyl]guanine], it took 140 µM to reach half-maximal inhibition (IC50).
The molecule `Nc1nc2c(nc(N)n2Cc2cccs2)c(=O)[nH]1` [2 or 9a] had an IC50 of 0.17 µM.
For `Nc1nc2c(nc(N)n2Cc2ccco2)c(=O)[nH]1` [Example 9b, 8-Amino-9-(2-furanylmethyl)guanine monohydrochloride], the midpoint of inhibition, the IC50, lay at 0.25 µM.
For the molecule `Nc1nc2c(nc(N)n2Cc2ccccn2)c(=O)[nH]1` [Example 16Af], half-maximal inhibition (IC50) was put at 4.6 µM.
With `Nc1nc2c(ncn2Cc2cccnc2)c(=O)[nH]1` [Example 1, 9-[(3-Pyridinyl)methyl]guanine], inhibition was half-maximal at 21.9 µM (IC50).
Molecule `Cc1sccc1Cn1c(N)nc2c(=O)[nH]c(N)nc21` [Example 16Ad] registered an IC50 of 1.72 µM.

In the next test the test system is T-Cell. The test can be described thus: HTBA-1 T-cell cytotoxicity in the presence of 2'-deoxyguanosine. It is filed as cell-based. To be noted: +dGuo (10 μM), read-out: HTBA-1 T-Cell +dGuo (10 μM) IC50.
As for `Cc1ccsc1Cn1c(N)nc2c(=O)[nH]c(N)nc21` [Example 9d, 8-Amino-9-[(3-methyl-2-thienyl)methyl]guanine], the IC50 came to 8.6 µM.
`Nc1nc2c(nc(N)n2Cc2cc3ccccc3s2)c(=O)[nH]1` [Example 16Ag]: the IC50 is over 12.5 µM.
As for `Nc1nc2c(nc(N)n2CCc2cccs2)c(=O)[nH]1` [Example 16Ac], the half-maximal inhibitory concentration (IC50) was 17.6 µM.
On the same count and under the same terms, as for `CCc1ccc(Cn2cnc3c(=O)[nH]c(N)nc32)s1` [Example 3, 9-[(5-Ethyl-2-thienyl)methyl]guanine], the figure is 4.15 µM; as for `Cc1cc(Cn2c(N)nc3c(=O)[nH]c(N)nc32)cs1` [Example 16Ak], 2.8 µM; as for `Nc1nc2c(nc(N)n2Cc2ccsc2)c(=O)[nH]1` [Example 9c, 8-Amino-9-[(3-thienyl)methyl]guanine, monohydrochloride, monohydrate], 0.49 µM.
Same read-out and setting: in the case of `Nc1nc2c(ncn2Cc2cccnc2)c(=O)[nH]1` [Example 1, 9-[(3-Pyridinyl)methyl]guanine] it was 54.1 µM; in that of `Cc1sccc1Cn1c(N)nc2c(=O)[nH]c(N)nc21` [Example 16Ad], 18.2 µM.

The test is the same for the next values; noted with them: read-out: HTBA-1 T-Cell +dGuo (10 μM) IC50.
On to `Nc1nc2c(nc(N)n2Cc2cccs2)c(=O)[nH]1` [2 or 9a], for which the IC50 was found to be 0.83 µM.
As for `Nc1nc2c(nc(N)n2Cc2ccco2)c(=O)[nH]1` [Example 9b, 8-Amino-9-(2-furanylmethyl)guanine monohydrochloride], the half-maximal inhibitory concentration (IC50) was 2.57 µM.
